“Also recorded” adds a separate entry of the source.
What was measured:
brain parenchyma = assay: Brain perfusion/influx by CSF tracer OVA-A647 (brain sections); format: in vivo, mice; conditions: 7 days after Visudyne/photoconversion, vs control groups
Method: Mice were anaesthetized by intraperitoneal (i.p.) injection of a mixed solution of ketamine (100 mg/Kg) and xylazine (10 mg/Kg) in saline. The skin of the neck was shaved and cleaned with iodine and 70% ethanol, ophthalmic solution placed on the eyes to prevent drying and the mouse's head was secured in a stereotaxic frame. After making a skin incision, the muscle layers were retracted and the cisterna magna exposed. Using a Hamilton syringe (coupled to a 33-gauge needle), the volume of the desired tracer solution was injected into the CSF-filled cisterna magna compartment. For brain CSF influx and lymphatic drainage experiments, 2 or 5 μL of Alexa Fluor® 594 or 647 conjugated OVA (Thermo Fisher Scientific), at 0.5 mg/mL in artificial CSF (#597316, Harvard Apparatus U.K.), were injected at a rate of 2.5 μL/min. After injecting, the syringe was left in place for additional 2 min to prevent back-flow of CSF.

[1] = tested on: brain hippocampus and cortex; assay: T1-weighted MRI of brain influx of i.c.m. gadolinium, Lymph4D analysis; format: in vivo, mice
Excerpt: Measurement of gadolinium influx rate and modeling of tracer advection-diffusion within the brain were achieved using Lymph4D, a software developed in-house and available for revision purposes on the following link on the world wide web: viva-lab.ece.virginia.edu/lymph4d. To allow for a direct comparison between the different conditions, the MRI stacks Si(x, y, z, t) of the imaged mice (4 vehicle and 4 Visudyne) were aligned to a Visudyne stack V1(x, y, z, t), chosen as reference. Before proceeding with the automated registration in the (x, y) plane, the stacks were manually aligned along the z (sagittal) direction, to ensure the correspondence between (x, y) (transversal plane) slices, and cropped both in the z and t (time) direction, to ensure that each set of coordinates (x, y, z, t) contained meaningful data. To optimize the slice alignment in the (x, y) plane, scale pyramids (Adelson, E. H., Anderson, C. H., Bergen, J. R., Burt, P. J. & Ogden, J. M. Pyramid methods in image processing. RCA engineer 29, 33-41, (1984).) (3 levels deep) were computed for both the image to be registered and the reference. Starting from the coarser scale, the optimal non-reflective transformation matrix (restricted to translation, rotation, and scaling) was evaluated by using an iterative process based on the steep gradient descent method with a mean square error (MSE) cost function. After reaching algorithm convergence at the largest scale, or the maximum number of allowed iterations, the alignment was refined using progressively finer scales. A linear interpolation mapping was then used to reconstruct the image registered using the optimized transformation matrix. The following alignment strategy was used. Given a stack Si to be aligned to V1, for every slice zj(t)=Si(x, y, zj, t) at a given location in the sagittal direction (z=zj), the optimal transformation matrix was evaluated at every available time (t) and the quality (MSE) of the resulting alignment measured. […] Also, after the alignment, contrast measurement, providing the difference between the maximum and the minimum values observed along the temporal direction during the experiment duration (variability in tracer signal intensity over time), was evaluated for a given (x, y, z) location in the S; stack using: […]
The model was discretized using the forward-time central-space (FTCS) finite difference method (Ferziger, J. H. & Perić, M. Finite Difference Methods. In: Computational Methods for Fluid Dynamics. 3rd edition, 39-69, Springer, Berlin, Heidelberg, (2002).) after the following assumptions. The concentration (x, t) was considered proportional to the measured MRI signal intensity. […]

mice = assay: Morris water maze test; format: in vivo; conditions: Visudyne/photoconversion twice, adult mice
Method: The Morris water maze test was performed as described before^53, but with modifications. Mice were transported to the behavior room to habituate at least 30 min before starting the test. The MWM test consisted of 4 days of acquisition, 1 day of probe trial and 2 days of reversal. In the acquisition, mice performed four trials per day, for 4 consecutive days, to find a hidden 10-cm diameter platform located 1 cm below the water surface in a pool 1 m in diameter. Tap water was made opaque with nontoxic tempera white paint and the water temperature was kept at 23±1° C. A dim light source was placed within the testing room and only distal visual cues were available above each quadrant of the swimming pool to aid in the spatial navigation and location of the submerged platform. The latency to platform, e.g., the time required by the mouse to find and climb onto the platform, was recorded for up to 60 s. Each mouse was allowed to remain on the platform for 20 s and was then moved from the maze to its home cage. […] During the acquisition, probe and reversal, data were recorded using the EthoVision automated tracking system (Noldus Information Technology). The mean latency (in s) of the four trials was calculated for each day of test. The % of time in the platform quadrant was calculated for the probe trial. […] The mean % of allocentric navigation of four trials was calculated for each day.

verteporfin [Visudyne]
brain perfusion by CSF tracer (OVA-A647 area fraction in brain sections) (brain parenchyma): significantly lower; also recorded: significant decrease | Gd signal gain in hippocampus and cortex ([1]; 7 days after Visudyne/photoconversion, Gd 25 mM i.c.m., 16 MRI sequences (~52 min), vs vehicle): significantly lower | contrast in Gd signal intensity in the ventricles ([1]; Visudyne-treated mice, over ~52 min): higher contrast in signal intensity | isotropic diffusion coefficient of Gd in the brain ([1]; after meningeal lymphatic ablation with Visudyne, advection-diffusion model in Lymph4D): lower coefficient values | Gd signal intensity gain (relative to sequence 1) in the brain cortex ([1]; one week after Visudyne/photoconversion, Gd 25 mM i.c.m., vs vehicle/photoconversion): significant decrease | MWM spatial learning (mice): significant deficits in spatial learning

Reference: patent US12352767B2, “Method of treating cognitive decline associated with neurological diseases based on a decrease in FLT4 expression or activity” (University of Virginia Patent Foundation, priority 2018, dated 2025)
